We go through 37 compounds from PubChem BioAssay AID1850 (Southern Research Specialized Biocontainment Screening …, 2009).

Each structure is given as a SMILES string.

This test concerns Salmonella Typhi PhoP-promoter GFP reporter, fluorescence, 4 h. The test is described as follows: Inhibition of PhoP regulon, Salmonella typhi GFP reporter cells, confirmation, 4 h (AID 1850).
With `N=c1c2c(n(Cc3cccc(Cl)c3)c3c1CCC3)CCCC2`, the concentration for half-maximal inhibition (IC50) was 64.2 µM.

With `CN(C)CCCN1c2ccccc2Sc2ccccc21`, the half-inhibitory concentration (IC50) was 114 µM.

For the compound `Cc1c(N=Cc2cc(Br)cc(Br)c2O)cccc1C(=O)O`, the IC50 is 40.9 µM.

For `Cc1ccc(C)c(N/C(N)=N/c2nc(C)cc(C)n2)c1`, the IC50 was 141 µM.

For `Cc1ccc(OCC(=O)N/N=C/c2ccc([N+](=O)[O-])o2)cc1`, the IC50 was 21.9 µM.

As for `CC[C@@H](C)[C@H](CNC)NC[C@@H](Cc1cccc2ccccc12)NCCc1cccc(C(F)(F)F)c1`, the IC50 was 19.9 µM.

`Cc1ccc2c(c1)N/C(=C(\C=C(/Cl)[N+](=O)[O-])[N+](=O)[O-])N2`: the IC50 is 99.7 µM.

In the case of `Clc1ccc(Nc2ccc(NCc3ccccc3)nn2)cc1`, the IC50 was 101 µM.

With `O=C(CCC(=O)Nc1ccc(Cl)cc1Cl)N/N=C/c1ccc([N+](=O)[O-])o1`, the IC50 was 23.5 µM.

For `CN1CCCN(C(c2ccccc2)c2ccc(Cl)cc2)CC1` (configuration not stated), the IC50 is 86.8 µM.

In the case of `O=[N+]([O-])/C=C/c1cc2ccccc2[nH]1`, the IC50 was 95 µM.

As to `CN1CCN(C2=Cc3ccccc3Sc3cc(F)c(Cl)cc32)CC1`, the IC50 is 32.8 µM.

Turning to `Cc1ccc2nc(/C(C#N)=C\c3ccc([N+](=O)[O-])o3)[nH]c2c1`, the IC50 was 99.1 µM.

Regarding `CCCCCCCCCCC[N+](C)(C)CC/C=C1/c2ccccc2Sc2ccc(Cl)cc21`, the IC50 was 39 µM.

Consider `Cc1ccc(C(=O)NNC(=S)NC(=O)COc2ccccc2)cc1`, for which the IC50 is 115 µM.

With `COc1cc(CNC2CCCC2)cc(Cl)c1OCc1ccccc1Cl`, the IC50 was 71.2 µM.

Turning to `CN1CCN(/N=C/c2c3ccccc3c(Cl)c3ccccc23)CC1`, the IC50 is 74.6 µM.

As for `COC(=O)C(C)NC(=S)N1CCN(c2c(F)cc3c(=O)c(C(=O)O)cn(C4CC4)c3c2OC)CC1C` (configuration not stated), the IC50 was 17.1 µM.

For the compound `CO[C@H]1C=CO[C@@]2(C)Oc3c(C)c(O)c4c(O)c(c(C=NN5CCN(C)CC5)c(O)c4c3C2=O)NC(=O)C(C)=CC=C[C@H](C)[C@H](O)[C@@H](C)[C@@H](O)[C@@H](C)[C@H](OC(C)=O)[C@@H]1C`, the IC50 is 21.1 µM.

On to `CC(NCc1ccc(-c2ccccc2)cc1)C(O)c1ccccc1` (configuration not stated), for which the IC50 was 63.6 µM.

For `O=C(N/N=C/c1cc(Cl)ccc1O)c1ccncc1`, the IC50 was 19.7 µM.

For `CN1CCN(C(c2cccc(Cl)c2)c2ccccc2Cl)CC1` (configuration not stated), the IC50 was 103 µM.

In the case of `CCn1cc(C(=O)O)c(=O)c2ccc(C)nc21`, the IC50 was 60.4 µM.

For the compound `Cc1cc(C)n2nc(S(=O)(=O)Nc3c(Cl)cccc3Cl)nc2n1`, the IC50 was 63.5 µM.

Take `O=c1c2ccccc2[nH]c2ccccc12`: the IC50 was 36.2 µM.

Consider `N=c1c2c(n(Cc3ccc(Cl)cc3Cl)c3c1CCC3)CCCC2`, for which the IC50 was 42.3 µM.

In the case of `CN1CCN(C(c2ccc(Cl)cc2)c2cc(Cl)c3cccnc3c2O)CC1` (configuration not stated), the IC50 is 19.7 µM.

Take `COc1cccc(-c2nnc(NC(=O)c3ccc(Cl)s3)o2)c1`: the IC50 was 101 µM.

For the compound `S=C(Nc1cc(Cl)cc(Cl)c1)NC1CCN(Cc2ccccc2)CC1`, the IC50 is 80.8 µM.

With `Nc1nc(Nc2ccccc2)nc2ccccc12`, the IC50 was 34.4 µM.

As for `CN(C)c1ccc(O)c2c1CC1CC3C(N(C)C)C(=O)C(C(N)=O)=C(O)[C@@]3(O)C(=O)C1=C2O` (some centres not stated), the IC50 was 8.82 µM.

For the compound `Oc1ccc(CN2CCN(c3ccccc3)CC2)c2cccnc12`, the IC50 is 147 µM.

Take `CN(C)CCOCCOc1ccc(Cl)c2ccccc12`: the IC50 is 103 µM.

Consider `C#CCOCCOCCOCCNc1nc(N2CCN(C(=O)CCCCCCCCCCNC(=O)[C@H]([C@@H](C)CC)n3cc(CCCCN=C(N)N)nn3)CC2)nc(N2CCN(C(=O)CCCCCCCCCCNC(=O)[C@H](CCCCN)n3cc(C)nn3)CC2)n1`, for which the IC50 was 35.7 µM.

Take `Cc1nnc(N/N=C/c2ccccn2)[nH]c1=O`: the IC50 is 32.8 µM.

On to `O=C(/C=C/c1ccccc1Cl)c1ccccc(=O)c1O`, for which the IC50 was 34.8 µM.

On to `CCN(CC)CCn1c(=N)n(CC(O)COc2cccc(C)c2)c2ccccc21` (configuration not stated), for which the IC50 was 135 µM.
